According to US9066938B2, “GPBP-1 inhibition and its therapeutic use” (Fibrostatin S.L., priority 2012, dated 2015):

What was measured:
A549 cells [1] = type: cell-based
Protocol: FIG. 2. […] Cells were seeded in 96-well plates and treated with the indicated compound combinations. The cellular viability (cell number) was measured with alamarBlue® and arbitrary units of fluorescence after 36 h of treatment (vertical axis).
FIG. 7. […] A549 cells were seeded on 96-well culture plates and after 4 h were treated with the indicated concentrations of doxorubicin in absence or presence of T12 (50 μM) and/or CFTR-inhibitor-172 (25 μM). Cells were cultured for additional 36 h and cell viability assessed as in FIG. 2.
A549 human lung adenocarcinoma cancer cells (CLS Cell Lines Service) were used as an ex vivo model for the assessment of anti-tumor activity of specific compounds. Unless otherwise indicated A549 cells were cultured in DMEM: Ham's F12 medium supplemented with 2 mM L-glutamine and 10% fetal bovine serum. A549 cells resistant to doxorubicin (A549-DR) were obtained treating cells with 1 μM for 4 weeks. A549 cells were transfected with a plasmid that expresses GPBP-1 and further selected with G418 (Invitrogen) to obtain a cell line (A549-GPBP) that constitutively expresses GPBP-1.
Cytotoxicity assays were performed with alamarBlue® reagent (Invitrogen) according to manufacturer's instructions. A549 cells were seeded on 96-well culture plates (7,500 cells/well) and allowed to settle during 4 h. Then, cells were cultured with individual peptidomimetics at concentrations ranging from 0 to 50 μM, in presence of doxorubicin at concentrations ranging from 0 to 10 μM for 36 h. JLSM cells were harvested by treatment with 0.25% trypsin (Lonza) and plated on collagen I coated 96-well black culture plate (Perkin Elmer) at a density of 10.000 cells per cm^2. After 4 h settling, cells were treated with different peptidomimetics (with or without doxorubicin) for 36 h. Subsequently alamarBlue® reagent was added and incubation maintained for 3 h. Fluorescence was measured using 560EX nm/590EM nm filter settings with a SpectraMax GeminiXPS (Molecular Devices). Blank wells containing media were used to determine background fluorescence.
The activity shown for each compound in Table 1 is the factor by which doxorubicin LC50 is reduced by the compound at a 50-μM concentration in A549 cell cultures. […] The symbols −, −/+, +, ++, +++, ++++ in the third column are used to show relative activities of compounds in a simplified way.

[2] = test system: PARP cleavage in A549 cells; assay: Flow cytometry of cleaved PARP (caspase-3-mediated apoptosis) in A549 cells; type: cell-based, human; conditions: doxorubicin 1 μM, T12 50 μM, 36 h
Protocol: FIG. 5. T12 enhances doxorubicin-induced caspase 3-mediated apoptosis. A549 cells were incubated with doxorubicin (1 μM) and/or T12 (50 μM) for 36 h. Subsequently, cells were stained with a PE conjugated antibody specific for human PARP-cleaved fragments and further analyzed by flow cytometry. Data are expressed as fold respect to untreated control cells. Shown is a representative experiment.
Caspase-3 activation in A549 cells was evaluated by flow cytometry using a human anti-cleaved PARP antibody conjugated to PE (BD Biosciences). Briefly, after treatment, the cells were collected by centrifugation and suspended in Perm/Wash™ (BD Biosciences) buffer for 20 min, washed and then incubated for 30 min with the antibody. Subsequently, the cells were rinsed and further analyzed by flow cytometry (BD FacsVerse™ cytometer, BD Biosciences).

A549 cells [3] = assay: Migration assay in modified Boyden chambers; type: cell-based, human; conditions: 16 h
Protocol: FIG. 8. T12 inhibits cancer cell migration. A modified Boyden chamber was used to measure migration as described in Methods and Experimental Design. Doxorubicin was used at 1 μM and T12 at 50 μM.
Migration assays were performed using modified Boyden chambers (Transwell inserts, 6.5 mm diameter; Corning). Inserts containing polycarbonate membranes with 8 μm pores were placed into the lower chambers containing 400 μl media (DMEM:F-12 supplemented with 10% FBS, 1% penicillin-streptomycin and 2 mM glutamine). Serum-starved A549 cells were removed from culture dishes with Hanks' balanced salt solution containing 0.5% trypsin and 0.2% EDTA (Sigma), washed and suspended in media without serum (DMEM:F-12, 1% penicillin-streptomycin and 2 mM glutamine) at 10^6 cells/mL. Two-hundred fifty thousand (250,000) cells in 250 μL media without serum were added to the top of each migration chamber and allowed to migrate to the underside of the porous membrane for 16 h. T12 and doxorubicin were present in the media of both top and bottom compartments throughout the assay. […] The detached cells were labeled with Calcein AM Fluorescent Dye (4 μg/ml) for 90 min at 37° C. and the fluorescence was measured at 494/517 nm (Abs/Em).

[4] = test system: A549 cells (CSC/SP and CTAC/MP compartments); assay: Doxorubicin content of A549 cells by flow cytometry; type: cell-based, human; conditions: doxorubicin 1 μM plus T12 50 μM
Protocol: FIG. 10. T12 enhances doxorubicin accumulation, preferentially in CSC/SP cells. A549 cultures were untreated (control) or treated with doxorubicin (1 μM) and/or T12 (50 μM). A, doxorubicin content was measured by flow cytometry using the PE channel. Represented are fluorescence intensity values. The increased amount of doxorubicin is evidenced by the rightwards displacement of the fluorescence peak. B, CSC/SP and CTAC/MP compartments were identified as in FIG. 9 and the doxorubicin content of cells was determined as in A.
A549 cells were suspended at 10^6 cells/mL in culture medium containing 10 mM Hepes (previously warmed at 37° C.). Hoechst 33342 was added at 5 μg/mL and cells incubated in a 37° C. bath with shaking for 90 min in the dark. Before incubation (and after staining) an aliquot of 1 mL was taken and verapamil (50 μM) and fumitremorgin C (10 μM) added. Cells were centrifuged at 300×g for 5 min at 4° C. and suspended in cold medium with 10 mM Hepes. Cells were kept at 4° C. until analysis. Analysis of Hoechst 33342 efflux was assessed using a Flow Cytometer with incident 350 nm ultraviolet light. The resulting fluorescence was measured at two wavelengths using 424/44 BP and 675 LP filters that allow detection of Hoechst blue and red, respectively. […] Doxorubicin content in either population was estimated with incident 488 nm blue light and 585/40 filter. […]

[5] = Synergism of T12 with paclitaxel (no details given); conditions: T12 plus paclitaxel

COc1ccc(-c2ccc(-c3cccc(C)c3)c(C)c2)c(CCC(=O)O)c1 [T12, 3-[4″-methoxy-3,2′-dimethyl-(1,1′;4′,1″)terphenyl-2″-yl] propionic acid]
A549 cell viability, compound without doxorubicin (A549 cells [1]; 36 h, alamarBlue): did not alter cell viability
Activity as enhancer of doxorubicin-induced cell death, relative activity symbol (A549 cells [1]; compound at 50 μM, A549 cell cultures): +++
effect on doxorubicin LC50 for A549 cells (A549 cells [1]; compound combined with doxorubicin): reduced doxorubicin LC50 for A549 cells in a dose-dependent manner
doxorubicin-induced PARP cleavage [2]: enhanced
cell migration of A549 cells, T12 with additional doxorubicin (A549 cells [3]; T12 50 μM plus doxorubicin 1 μM): virtually arrested
cell migration of A549 cells (A549 cells [3]; T12 50 μM): sharply inhibited
doxorubicin content of cells versus doxorubicin only [4]: higher doxorubicin content
synergism of T12 with paclitaxel [5]: synergistic
